Usually kinetic solubility stands for the concentration staying in solution when a stock, usually in DMSO, is diluted into the medium.

Each structure is given as a SMILES string. In brackets after ≈: the same amount, converted by molar mass.

The results in this text go back to PubChem BioAssay AID1996.

For this data set the following is noted: buffer; pH 7.4; 200.0 µM.
Turning to `COc1ccccc1NC(=O)c1c(C)nc2ccccc2c1C(=O)O`, the solubility (kinetic) was greater than 50.5 µg/mL.
Then `O=Cc1ccc(OCc2cn3ccccc3n2)cc1`, with greater than 37.8 µg/mL.
`COc1ccc(NC(=O)CN(C)C2=NS(=O)(=O)c3ccccc32)cc1Cl` yielded a solubility (kinetic) of 4.4 µg/mL (≈ 11.2 µM).
The value for `Cc1ccc(SCC(=O)N2CCN(S(=O)(=O)c3cccs3)CC2)cc1` was 18.4 µg/mL (≈ 46.4 µM).
Then `COc1ccc(CC(=O)OCC(=O)N2CCCC(C)C2)cc1` (configuration not stated), with greater than 45.8 µg/mL.
Then `O=C(Nc1c(-c2ccc(F)cc2)nc2ccccn12)c1ccc(F)cc1`, with 3.3 µg/mL (≈ 9.45 µM).
Turning to `O=C(CCN1C(=O)c2ccccc2C1=O)Nc1cccc(O)c1`, the kinetic solubility is greater than 46.5 µg/mL.
The value for `COc1ccc(-n2c(C)cc(/C=C3\SC(=O)NC3=O)c2C)cc1` was 3.9 µg/mL (≈ 11.9 µM); that for `NC(=O)Nc1ccc(Cl)cc1` was greater than 25.6 µg/mL; that for `Cn1c(SCC(=O)NC2CCCCC2)nnc1-c1ccccc1F` was greater than 52.3 µg/mL.
Then `CCOc1ccc(S(=O)(=O)/N=C(/c2ccccc2)N(C)C)cc1`, with greater than 49.9 µg/mL; and `O=C(OCc1ccc(Br)cc1)c1cccnc1`, with 40.5 µg/mL (≈ 139 µM).
Then `CSc1ccc(CN(C)C(=O)c2cc(Cl)c3c(c2)OCCO3)cc1`, with greater than 54.6 µg/mL; and `CCOc1ccccc1NC(=O)C(C)SCc1ccccc1` (configuration not stated), with 1.4 µg/mL (≈ 4.44 µM); and `CCc1cc(C(=O)Nc2ccccc2N2CCOCC2)sc1C`, with 2.2 µg/mL (≈ 6.66 µM).
Compound `CCN(CC(=O)NCc1ccc(Cl)cc1)C(=O)/C=C/c1ccccc1` yielded a solubility (kinetic) of 2.8 µg/mL (≈ 7.85 µM).
As to `CC(=O)c1ccccc1OCCCOc1cccc2cccnc12`, the solubility (kinetic) was 45.8 µg/mL (≈ 143 µM).
In turn, `CCOc1ccccc1NC(=O)COC(=O)C1CC1` yielded a solubility (kinetic) greater than 39.5 µg/mL.
Regarding `CN(C)C(=O)Oc1ccnc2cc(Cl)ccc12`, the kinetic solubility is greater than 37.6 µg/mL.
The value for `Cc1ccc(C(=O)C(C)OC(=O)c2nc(Cl)ccc2Cl)cc1` (configuration not stated) was greater than 50.7 µg/mL; that for `NC(=O)COC(=O)C1CSC2(c3ccc(F)cc3)CCC(=O)N12` (configuration not stated) was 49.4 µg/mL (≈ 146 µM); that for `CCOc1ccccc1/C=C\c1nc(O)c([N+](=O)[O-])c(=O)[nH]1` was greater than 45.5 µg/mL.
As for `Fc1ccc(Oc2ccnc(Cl)n2)c(Cl)c1`, the kinetic solubility was determined as 16.9 µg/mL (≈ 65.2 µM).
Then `O=C(CN1CCN(Cc2ccccc2)CC1)N/N=C/c1ccco1`, with greater than 49 µg/mL.
The value for `Cn1c(COc2ccc(C(=O)O)cc2)nc2ccccc21` was greater than 42.3 µg/mL; that for `COc1ccc(CC(C)Nc2cccc(SC)c2)cc1` (configuration not stated) was 1.6 µg/mL (≈ 5.57 µM); that for `O=C(Nc1ccccc1)O/N=C/c1ccc(F)cc1` was 12.8 µg/mL (≈ 49.6 µM).
`O=c1cc(CSCc2ccc(Cl)cc2)[nH]c(=O)[nH]1`: the solubility (kinetic) was determined as 41.3 µg/mL (≈ 146 µM).
Then `O=C(O)Cc1ccc(NC(=O)Cc2ccc3ccccc3c2)cc1`, with 3.7 µg/mL (≈ 11.6 µM); and `O=C(Nc1ccc(S(=O)(=O)NC2=NCCCCC2)cc1)c1ccc(Cl)c([N+](=O)[O-])c1`, with 22 µg/mL (≈ 48.8 µM); and `O=C(COC(=O)c1cc(F)cc(F)c1)NCCCc1ccccc1`, with 3.7 µg/mL (≈ 11.1 µM).
In the case of `CCCNS(=O)(=O)c1cc2c3c(c1)C(C)C(=O)N3CCC2` (configuration not stated), the kinetic solubility worked out at 40.3 µg/mL (≈ 131 µM).
`N#C/C(=C\C=C\c1ccccc1)C(=O)N1CCCC1` gave a kinetic solubility of 7.3 µg/mL (≈ 28.9 µM).
`Nc1cc(=O)[nH]c(SCC(=O)N2CCCC2)n1` displayed a kinetic solubility greater than 38.1 µg/mL.
As to `CCOc1ccc(Oc2ccc(Cl)cc2N)cc1.Cl`, the kinetic solubility worked out at 4.5 µg/mL.
Then `O=C(Nc1cccc(O)c1)c1cc(-c2ccccc2Cl)on1`, with 0.8 µg/mL (≈ 2.54 µM); and `O=C(Nc1ccc(NC(=O)C2CC2)cc1)c1ccco1`, with greater than 40.5 µg/mL; and `COc1ccc(CC(=O)NCc2csc(-c3cccs3)n2)cc1OC`, with 54.6 µg/mL (≈ 146 µM).
Then `Cc1cc(C)c2c(CC(=O)NC(C)C)coc2c1`, with 9.5 µg/mL (≈ 38.7 µM); and `O=C1OCc2ccc(NC(=O)c3ccccc3C(=O)O)cc21`, with greater than 44.6 µg/mL; and `CC(C)(C)c1nc(SCC(=O)NC2CCCC2)c2ccccc2n1`, with 0.6 µg/mL (≈ 1.75 µM).
Then `COc1ccc(CC(=O)Nc2cc(C)ccc2O)cc1OC`, with greater than 45.2 µg/mL; and `COc1ccc(OCC#CCN2CCNCC2)cc1.O=C(O)C(=O)O`, with 52.4 µg/mL; and `COc1ccc(OCC(=O)Nc2ccccc2N2CCN(C)CC2)cc1`, with 49.5 µg/mL (≈ 139 µM).
For the compound `Cc1cc(NC(=O)COC(=O)c2c(C)c(C)c(C)c(C)c2C)no1`, the kinetic solubility turned out to be 2.3 µg/mL (≈ 6.96 µM).
For the compound `Br.O=C(O)c1ccccc1CSC1=NCCS1`, the kinetic solubility was greater than 50.1 µg/mL.
Compound `CCCN(CCC)Cc1cc(=O)oc2cc3c(cc12)CCC3` gave a solubility (kinetic) of less than 0.6 µg/mL.
Then `COc1ccccc1CNC(=O)COC(=O)/C=C/c1ccc2c(c1)OCO2`, with 5.4 µg/mL (≈ 14.6 µM); and `NC(=O)C1CCCN(Cc2ccc3ccccc3c2)C1` (configuration not stated), with 29.2 µg/mL (≈ 109 µM).
The compound `O=C1C2CCN(CC2)C12CC2c1ccc(C(F)(F)F)cc1` (configuration not stated) returned a solubility (kinetic) of 23.9 µg/mL (≈ 80.9 µM). The solubility kinetic values of the last two compounds are within 1.5-fold of each other.
The value for `N#Cc1ccc(OCCN2CCc3ccccc3C2)cc1` was 41 µg/mL (≈ 147 µM); that for `CC(C)(C)C(=O)O/N=C(\N)c1ccc(Br)cc1` was 30.3 µg/mL (≈ 101 µM).
